Assay results from patent US20230416240A1, “KAT6 TARGETING COMPOUNDS” (Prelude Therapeutics Incorporated, priority 2022, published 2023).

target: T1, HiBit tagged KAT6A (Homo sapiens, UniProt Q92794); experiment: HiBit KAT6A Degradation Assessment; assay type: cell-based; conditions: HeLa cells with HiBit tagged KAT6A, 18 h of treatment, 9-point serial dilution
T1 construct: host or cells: HeLa
Method: The degradation activity of compounds was evaluated by measuring levels of KAT6A protein using the HiBiT system. These studies were conducted in HeLa cells with a HiBit tagged KAT6A. Cells were maintained in a 37° C. incubator at 5% CO2 in EMEM (ATCC, 30-2003) supplemented with 10% v/v FBS (Gibco, 26140-079) and 1% penicillin streptomycin. Cells were seeded in 384-well plates at a density of 2,000 cells/well. Compounds dissolved in DMSO were added in 9-point serial dilution. After 18 h of treatment, KAT6A levels were measured using the Nano-Glo® HiBiT Lytic Detection System (Promega catalog number N3030) per manufacturer's instructions. Luminescence signal was measured with a multimode plate reader (Envision 2105, Perkin Elmer). Luminescence values were normalized to background and DMSO controls to quantify KAT6A for each condition. Results were analyzed, and DC50 and Dmax values obtained using a four-parameter logistic curve fit.

T1 sequence (Q92794 whole entry): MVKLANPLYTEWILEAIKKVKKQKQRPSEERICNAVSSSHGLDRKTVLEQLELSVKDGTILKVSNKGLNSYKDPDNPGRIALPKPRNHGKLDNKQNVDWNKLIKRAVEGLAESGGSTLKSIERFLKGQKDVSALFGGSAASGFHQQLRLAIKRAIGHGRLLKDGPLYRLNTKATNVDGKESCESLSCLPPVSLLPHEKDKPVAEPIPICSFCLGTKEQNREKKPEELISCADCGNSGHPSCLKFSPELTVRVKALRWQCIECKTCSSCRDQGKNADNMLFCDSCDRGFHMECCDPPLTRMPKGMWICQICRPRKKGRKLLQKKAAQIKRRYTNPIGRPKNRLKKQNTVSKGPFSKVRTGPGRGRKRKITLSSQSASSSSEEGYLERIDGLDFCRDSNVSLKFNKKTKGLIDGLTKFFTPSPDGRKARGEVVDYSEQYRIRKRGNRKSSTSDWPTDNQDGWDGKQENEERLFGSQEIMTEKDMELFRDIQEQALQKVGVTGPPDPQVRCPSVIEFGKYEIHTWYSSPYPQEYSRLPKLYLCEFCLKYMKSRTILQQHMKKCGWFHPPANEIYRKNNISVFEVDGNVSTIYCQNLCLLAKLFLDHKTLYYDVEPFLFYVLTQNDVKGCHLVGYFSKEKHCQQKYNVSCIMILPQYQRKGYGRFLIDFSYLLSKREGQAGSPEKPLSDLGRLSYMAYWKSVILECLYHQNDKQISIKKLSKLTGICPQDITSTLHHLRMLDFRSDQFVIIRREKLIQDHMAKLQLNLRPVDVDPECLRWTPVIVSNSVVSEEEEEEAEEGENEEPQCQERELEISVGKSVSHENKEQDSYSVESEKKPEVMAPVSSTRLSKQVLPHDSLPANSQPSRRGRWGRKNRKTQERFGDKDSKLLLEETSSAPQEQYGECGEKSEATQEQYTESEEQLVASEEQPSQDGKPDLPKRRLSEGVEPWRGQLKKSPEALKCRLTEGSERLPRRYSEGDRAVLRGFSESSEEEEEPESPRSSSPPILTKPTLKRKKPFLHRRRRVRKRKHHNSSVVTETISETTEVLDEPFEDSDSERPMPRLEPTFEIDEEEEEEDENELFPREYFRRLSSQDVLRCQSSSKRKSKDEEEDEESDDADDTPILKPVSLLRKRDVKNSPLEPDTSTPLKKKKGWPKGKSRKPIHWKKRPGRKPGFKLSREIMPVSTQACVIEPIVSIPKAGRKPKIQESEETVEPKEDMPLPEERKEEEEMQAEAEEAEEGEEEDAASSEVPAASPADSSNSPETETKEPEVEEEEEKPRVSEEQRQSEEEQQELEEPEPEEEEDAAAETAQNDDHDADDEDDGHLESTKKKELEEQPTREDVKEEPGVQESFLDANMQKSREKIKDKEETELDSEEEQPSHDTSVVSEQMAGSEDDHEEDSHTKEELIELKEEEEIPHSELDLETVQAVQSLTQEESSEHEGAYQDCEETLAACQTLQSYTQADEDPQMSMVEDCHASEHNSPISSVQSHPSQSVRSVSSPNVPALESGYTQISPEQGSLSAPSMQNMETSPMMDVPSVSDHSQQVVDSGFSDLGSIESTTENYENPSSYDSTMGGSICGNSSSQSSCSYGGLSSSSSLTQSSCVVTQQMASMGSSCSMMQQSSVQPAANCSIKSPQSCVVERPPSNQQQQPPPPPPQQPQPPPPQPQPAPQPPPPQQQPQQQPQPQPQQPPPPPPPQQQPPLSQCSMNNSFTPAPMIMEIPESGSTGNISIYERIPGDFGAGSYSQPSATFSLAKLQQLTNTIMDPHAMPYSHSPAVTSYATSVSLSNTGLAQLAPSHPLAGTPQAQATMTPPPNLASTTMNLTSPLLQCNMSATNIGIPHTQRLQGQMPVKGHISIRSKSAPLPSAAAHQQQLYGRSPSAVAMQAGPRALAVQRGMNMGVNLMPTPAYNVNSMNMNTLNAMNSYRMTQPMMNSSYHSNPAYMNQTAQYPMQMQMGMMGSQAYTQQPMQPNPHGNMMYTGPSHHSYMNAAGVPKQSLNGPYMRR

SMILES	DC50 [nM]	Dmax [%]
COc1cc(Cn2cccn2)cc2onc(NS(=O)(=O)c3cccc(N4CC5(CCN(C6CC7(CCN(c8ccc9c(c8)C(=O)N(C8CCC(=O)NC8=O)C9=O)C7)C6)CC5)C4)c3)c12 (stereo not drawn) [Example 22, N-(6-((1H-Pyrazol-1-yl)methyl)-4-methoxybenzo[d]isoxazol-3-yl)-3-(7-(6-(2-(2,6-dioxopiperidin-3-yl)-1,3-dioxoisoindolin-5-yl)-6-azaspiro[3.4]octan-2-yl)-2,7-diazaspiro[3.5]nonan-2-yl)benzenesulfonamide]	< 10	50 to 75
COc1cc(Cn2cccn2)cc2onc(NS(=O)(=O)c3cccc(N4C[C@@H]5CN(C[C@@H]6CCN(c7ccc8c(c7)CN([C@H]7CCC(=O)NC7=O)C8=O)C6)C[C@H]5C4)c3)c12 [Example 40, N-(6-((1H-Pyrazol-1-yl)methyl)-4-methoxybenzo[d]isoxazol-3-yl)-3-((3aS,6aS)-5-(((S)-1-(2-((S)-2,6-dioxopiperidin-3-yl)-1-oxoisoindolin-5-yl)pyrrolidin-3-yl)methyl)hexahydropyrrolo[3,4-c]pyrrol-2(1H)-yl)benzenesulfonamide]	< 10	> 75
COc1cc(Cn2cccn2)cc2onc(NS(=O)(=O)c3cccc(N4CCC5(CCN(C[C@@H]6CCN(c7ccc8c(c7)CN(C7CCC(=O)NC7=O)C8=O)C6)CC5)CC4)c3)c12 (stereo partly drawn) [Example 39, N-(6-((1H-Pyrazol-1-yl)methyl)-4-methoxybenzo[d]isoxazol-3-yl)-3-(9-(((3S)-1-(2-(2,6-dioxopiperidin-3-yl)-1-oxoisoindolin-5-yl)pyrrolidin-3-yl)methyl)-3,9-diazaspiro[5.5]undecan-3-yl)benzenesulfonamide]	< 10	> 75
COc1cc(Cn2cccn2)cc2onc(NS(=O)(=O)c3cccc(N4CCC(NC[C@@H]5CCN(c6ccc7c(c6)CN([C@H]6CCC(=O)NC6=O)C7=O)C5)CC4)c3)c12 [Example 36, N-(6-((1H-pyrazol-1-yl)methyl)-4-methoxybenzo[d]isoxazol-3-yl)-3-(4-((((S)-1-(2-((S)-2,6-dioxopiperidin-3-yl)-1-oxoisoindolin-5-yl)pyrrolidin-3-yl)methyl)amino)piperidin-1-yl)benzenesulfonamide]	10 to 100	> 75
COc1cc(Cn2cccn2)cc2onc(NS(=O)(=O)c3cccc(N4CCC5(CCN(CC6CCN(c7ccc8c(c7)C(=O)N(C7CCC(=O)NC7=O)C8=O)C6)CC5)CC4)c3)c12 (stereo not drawn) [Example 20, N-(6-((1H-Pyrazol-1-yl)methyl)-4-methoxybenzo[d]isoxazol-3-yl)-3-(9-((1-(2-(2,6-dioxopiperidin-3-yl)-1,3-dioxoisoindolin-5-yl)pyrrolidin-3-yl)methyl)-3,9-diazaspiro[5.5]undecan-3-yl)benzenesulfonamide]	< 10	> 75
COc1cc(Cn2cccn2)cc2onc(NS(=O)(=O)c3cccc(N4CCN(C(=O)C5CCN(c6ccc7c(c6)C(=O)N(C6CCC(=O)NC6=O)C7=O)C5)CC4)c3)c12 (stereo not drawn) [Example 24, N-(6-((1H-pyrazol-1-yl)methyl)-4-methoxybenzo[d]isoxazol-3-yl)-3-(4-(1-(2-(2,6-dioxopiperidin-3-yl)-1,3-dioxoisoindolin-5-yl)pyrrolidine-3-carbonyl)piperazin-1-yl)benzenesulfonamide]	–	≤ 25
COc1cc(Cn2cccn2)cc2onc(NS(=O)(=O)c3cccc(N4CCC5(CCN(C[C@@H]6CCN(c7ccc8c(c7)C(=O)N(C7CCC(=O)NC7=O)C8=O)C6)CC5)C4)c3)c12 (stereo partly drawn) [Example 15, N-(6-((1H-Pyrazol-1-yl)methyl)-4-methoxybenzo[d]isoxazol-3-yl)-3-(8-(((3S)-1-(2-(2,6-dioxopiperidin-3-yl)-1,3-dioxoisoindolin-5-yl)pyrrolidin-3-yl)methyl)-2,8-diazaspiro[4.5]decan-2-yl)benzenesulfonamide]	< 10	50 to 75
COc1cc(Cn2cccn2)cc2onc(NS(=O)(=O)c3cccc(N4CC5(CCN(CC6CCN(c7ccc8c(c7)CN(C7CCC(=O)NC7=O)C8=O)C6)CC5)C4)c3)c12 (stereo not drawn) [Example 33, N-(6-((1H-pyrazol-1-yl)methyl)-4-methoxybenzo[d]isoxazol-3-yl)-3-(7-((1-(2-(2,6-dioxopiperidin-3-yl)-1-oxoisoindolin-5-yl)pyrrolidin-3-yl)methyl)-2,7-diazaspirononan-2-yl)benzenesulfonamide]	< 10	> 75
COc1cc(Cn2cccn2)cc2onc(NS(=O)(=O)c3cccc(N4CC5(CCN(C[C@@H]6CCN(c7ccc8c(c7)CN([C@H]7CCC(=O)NC7=O)C8=O)C6)CC5)C4)c3)c12 [Example 28, N-(6-((1H-Pyrazol-1-yl)methyl)-4-methoxybenzo[d]isoxazol-3-yl)-3-(7-(((S)-1-(2-((S)-2,6-dioxopiperidin-3-yl)-1-oxoisoindolin-5-yl)pyrrolidin-3-yl)methyl)-2,7-diazaspiro[3.5]nonan-2-yl)benzenesulfonamide]	< 10	> 75

Other lines, results leading:

DC50 [nM]	Dmax [%]	SMILES
100 to 1000	50 to 75	COc1cc(Cn2cccn2)cc2onc(NS(=O)(=O)c3cccc(N4CCN(CC5CCN(c6cccc7c6C(=O)N(C6CCC(=O)NC6=O)C7=O)C5)CC4)c3)c12 (stereo not drawn) [Example 31, N-(6-((1H-Pyrazol-1-yl)methyl)-4-methoxybenzo[d]isoxazol-3-yl)-3-(4-((1-(2-(2,6-dioxopiperidin-3-yl)-1,3-dioxoisoindolin-4-yl)pyrrolidin-3-yl)methyl)piperazin-1-yl)benzenesulfonamide]
–	25 to 50	COc1cc(Cn2cccn2)cc2onc(NS(=O)(=O)c3cccc(N4CCN(CCOC5CCN(c6ccc7c(c6)C(=O)N(C6CCC(=O)NC6=O)C7=O)CC5)CC4)c3)c12 (stereo not drawn) [Example 17, N-(6-((1H-Pyrazol-1-yl)methyl)-4-methoxybenzo[d]isoxazol-3-yl)-3-(4-(2-((1-(2-(2,6-dioxopiperidin-3-yl)-1,3-dioxoisoindolin-5-yl)piperidin-4-yl)oxy)ethyl)-piperazin-1-yl)benzenesulfonamide]
–	25 to 50	COc1cc(Cn2cccn2)cc2onc(NS(=O)(=O)c3cccc(N4CCN(CC5CN(c6ccc7c(c6)C(=O)N(C6CCC(=O)NC6=O)C7=O)CCO5)CC4)c3)c12 (stereo not drawn) [Example 18, N-(6-((1H-Pyrazol-1-yl)methyl)-4-methoxybenzo[d]isoxazol-3-yl)-3-(4-((4-(2-(2,6-dioxopiperidin-3-yl)-1,3-dioxoisoindolin-5-yl)morpholin-2-yl)methyl)piperazin-1-yl)benzenesulfonamide]
–	25 to 50	COc1cc(Cn2cccn2)cc2onc(NS(=O)(=O)c3cccc(N4CCN(CC5CCN(c6ccc(C(=O)NC7CCC(=O)NC7=O)nc6)CC5)CC4)c3)c12 (stereo not drawn) [Example 29, 5-(4-((4-(3-(N-(6-((1H-Pyrazol-1-yl)methyl)-4-methoxybenzo[d]isoxazol-3-yl)sulfamoyl)phenyl)piperazin-1-yl)methyl)piperidin-1-yl)-N-(2,6-dioxopiperidin-3-yl) picolinamide]
10 to 100	50 to 75	COc1cc(Cn2cccn2)cc2onc(NS(=O)(=O)c3cccc(N4CCN(CC5CCN(c6cccc7c6C(=O)N(C6CCC(=O)NC6=O)C7=O)CC5)CC4)c3)c12 (stereo not drawn) [Example 32, 3-[4-[[1-[2-(2,6-Dioxopiperidin-3-yl)-1,3-dioxoisoindol-4-yl]piperidin-4-yl]methyl]piperazin-1-yl]-N-[4-methoxy-6-(pyrazol-1-ylmethyl)-1,2-benzoxazol-3-yl]benzenesulfonamide]
